Source: patent US10473645B2, “Methods for identifying a receptor for a ligand and uses thereof” (UNIVERSITE DE GENEVE, priority 2014, dated 2019)

How the values were obtained:
Olfr1377 = assay: OR transcript level by RT-qPCR after in vivo odorant exposure; parameters: species or system mouse; key to olfr1377 candidate OR (RNAseq) confirmed by qPCR: The transcript downregulation of 21 out of the 26 olfactory receptor candidates obtained by RNAseq was confirmed by qPCR; false RNAseq positive candidates, namely OR candidates for which in fact mRNA was not downregulated following acetophenone exposure; conditions: for Olfr1377 mRNA level relative to unexposed controls: 5% odorant, 5 hours, in vivo, RT-qPCR
Protocol: (§1) In vivo exposure to odorant: Starting 48 h before experiments, mice were habituated to pure DMSO on a cotton ball. 200 μl were pipetted directly onto the cotton and placed in the cage, replacing any cotton that was already in the cage for nest-making purposes.
(§2) On the day of the experiment, mice receiving odorants were transferred to a different room, where they were exposed to a cotton ball on which 200 μl of odorant diluted in pure DMSO were deposited. Exposures started in the morning between 8 and 10 am (that is two hours after lights were on) and mice were killed and dissected between 1 and 3 pm. […] If a number of different odorants were tested in the same experiment, a different overpressurized room would always be used for each odorant to avoid odor cross-contamination.
(§3) After odorant exposure, mice were killed by cervical dislocation and immediately decapitated. The main olfactory epithelia (MOE), were harvested in their entirety and transferred to a tube containing 600 μl of lysis buffer and β-mercaptoethanol (RNAeasy kit, Qiagen, following the manufacturer protocol) and a 0.5 cm diameter steel ball, and then put on ice. Samples were then homogenized using a FastPrep®-24 instrument (MP Biomedicals) at 6 m/s for 30 s and left on ice. RNA extraction was performed on all samples in parallel using the Qiagen RNeasy Mini® kit following the manufacturer's instructions. Two DNase treatments were performed on all samples: first using the Qiagen RNase-Free DNase Set® and then using the Life Technologies Ambion DNase I® kit. RNA samples were then aliquoted and stored at −80° C.
RNA concentrations were determined using an Amersham Ultrospec® 3100 Pro spectrophotometer, and RNA quality was evaluated with an Agilent Technologies 2100 Bioanalyzer®. […]
qPCR Ct values were analyzed using an in-house developed Microsoft Excel® macro file. […] Ct values were converted to quantities relative to the maximum for each given gene. Selected reference genes were then analyzed for variance using the geNorm algorithm. […]

olfr47 = assay: as above; parameters: species or system mouse; key: The transcript downregulation of 21 out of the 26 olfactory receptor candidates obtained by RNAseq was confirmed by qPCR; false RNAseq positive candidates, namely OR candidates for which in fact mRNA was not downregulated following acetophenone exposure; conditions: 5% acetophenone exposure
Protocol: as §1, §2, §3
(§4) RNA concentrations were determined using an Amersham Ultrospec® 3100 Pro spectrophotometer, and RNA quality was evaluated with an Agilent Technologies 2100 Bioanalyzer®. Each reverse transcription was performed with 0.5 μg RNA using the Takara Primescript® kit, in a final volume of 10 μl. Primers for reverse transcription were equal mixtures of poly-T nucleotides and random hexamers. Negative controls (omitting the reverse transcriptase enzyme) were performed for each sample. 1/14th of the cDNA preparation was used for each triplicated qPCR reaction.
(§5) qPCR Ct values were analyzed using an in-house developed Microsoft Excel® macro file. Triplicate values were compared and outliers (values with a difference higher than 0.5 Ct to their nearest neighbor) were discarded. The number of conditions with an outlying value was always less than 10% of the total number of conditions. Ct values were converted to quantities relative to the maximum for each given gene. Selected reference genes were then analyzed for variance using the geNorm algorithm. All values were normalized with the olfactory tissue-specific genes Omp and Adcy3. β-Actin was used as a non-tissue-specific reference gene to control for differences in dissection between samples.
(§6) Mice (n=6) were exposed to 5% acetophenone or to a “neutral” control condition for 5 hours. An olfactory cDNA library corresponding to each animal was deep sequenced and the ratios of odorant receptor mRNA concentrations relative to controls were plotted (FIG. 3). […] Based on transcriptional downregulation levels observed by RNAseq following acetophenone exposure, a list of 26 candidate responsive ORs was determined (FIG. 3), that reached 74% decrease (Olfr145) or even over 80% (Olfr169) relative to controls. […] The transcript downregulation of 21 out of the 26 olfactory receptor candidates obtained by RNAseq was confirmed by qPCR.

olfr745 = assay: as above; parameters: species or system mouse; key: The transcript downregulation of 21 out of the 26 olfactory receptor candidates obtained by RNAseq was confirmed by qPCR; false RNAseq positive candidates, namely OR candidates for which in fact mRNA was not downregulated following acetophenone exposure; conditions: 5% acetophenone exposure
Protocol: as §1, §2, §3, §4, §5, §6

olfr1350 = assay: as above; parameters: species or system mouse; key: The transcript downregulation of 21 out of the 26 olfactory receptor candidates obtained by RNAseq was confirmed by qPCR; false RNAseq positive candidates, namely OR candidates for which in fact mRNA was not downregulated following acetophenone exposure; conditions: 5% acetophenone exposure
Protocol: as §1, §2, §3, §4, §5, §6

[1] = tested on: Olfr171-expressing neurons; assay: pS6 immunolabeling with OR in situ hybridization after odorant exposure; parameters: species or system mouse; conditions: 5% odorant, 60 minutes, in vivo
Protocol: (§7) In order to independently validate the identity of an acetophenone receptor obtained with the RNAseq approach, the potential colocalization following acetophenone exposure of a neuronal activity marker (the phosphorylated ribosomal protein S6 (pS6) (Knight et al., 2012, Cell, 151, 1126-1137) and specific olfactory receptors were evaluated. To this aim, in-situ hybridizations were performed on sections of olfactory tissue with probes targeting receptor mRNAs followed by immunolabeling of pS6. The probes used were directed against the transcripts of most of the ORs determined as responsive including Olfr983 transcripts (encoding a known acetophenone receptor), Olfr171 transcripts (encoding a known ethyl isobutyrate receptor), and Olfr145 transcripts, encoding a newly identified receptor by RNAseq. Before analysis, mice were exposed to either 5% acetophenone, 5% ethyl isobutyrate, or a negative control condition for 60 minutes. […] 66% (Olfr983) and 70% (Olfr145) of the neurons were positive for pS6 after acetophenone exposure, while only 11% of the neurons expressing Olfr171 were positive for pS6 after exposure to this compound.

OSNs expressing olfr750 = assay: as above; type: in vivo, mouse; parameters: key: y: neuronal activation (i.e. pS6 signal in a fraction of neuron exceeding 15% relative to controls); no pS6 signals; conditions: 5% acetophenone, 60 minutes
Protocol: as §7

OSNs expressing olfr378 = assay: as above; type: in vivo, mouse; parameters: key: y: neuronal activation (i.e. pS6 signal in a fraction of neuron exceeding 15% relative to controls); no pS6 signals; conditions: 5% acetophenone, 60 minutes
Protocol: as §7

OSNs expressing olfr1135 = assay: as above; type: in vivo, mouse; parameters: key: y: neuronal activation (i.e. pS6 signal in a fraction of neuron exceeding 15% relative to controls); no pS6 signals; conditions: 5% acetophenone, 60 minutes
Protocol: as §7

## CC(=O)c1ccccc1 [acetophenone]
Olfr1377; 5% acetophenone exposure
  olfr1377 candidate OR (RNAseq) confirmed by qPCR: y
Olfr1377
  Olfr1377 mRNA level relative to unexposed controls: decrease
Olfr1377; listed as Acetophenone
  Olfr1377 mRNA level relative to unexposed controls: downregulates
olfr47
  olfr47 candidate OR (RNAseq) confirmed by qPCR: y
olfr745
  olfr745 candidate OR (RNAseq) confirmed by qPCR: y
olfr1350
  olfr1350 candidate OR (RNAseq) confirmed by qPCR: n
[1]
  fraction of Olfr171-expressing neurons positive for pS6: 11%
OSNs expressing olfr750
  olfr750 ps6 positive: n
OSNs expressing olfr378
  olfr378 ps6 positive: n
OSNs expressing olfr1135
  olfr1135 ps6 positive: n
